According to PMC9570995, “Design, Synthesis, and Biological Evaluation of Novel Dihydropyridine and Pyridine Analogs as Potent Human Tissue Nonspecific Alkaline Phosphatase Inhibitors with Anticancer Activity: ROS and DNA Damage-Induced Apoptosis” (Molecules, 2022):

Legend:
Herring sperm DNA = experiment: Fluorescence emission titration with DNA; format: binding; conditions: compound 10 µM, DMF/H2O (1:9, v/v)
Description: The fluorescence emission studies of compound 4d (10 µM) were accomplished in DMF/H2O (1:9, v/v) before and after the continual addition of DNA (0–50 µg/mL) to probe out the compound-DNA interaction. […] As evident in Figure 8, the fluorescence emission of compound 4d was attenuated by ~55% (calculated through I0/I) upon the maximum addition of 50 µg/mL of DNA. The substantial fluorescence quenching behavior of 4d upon the addition of DNA is perhaps attributed to the efficient binding of the compound to the minor groove of DNA [68]. […] Next, the excellent binding efficiency of compound 4d with DNA was well elucidated through the Stern–Volmer (SV) plot, which was produced between the increased fluorescence quenching efficiency and increasing concentration of DNA solution. […]
Reagent grade solvents were used for purification purposes. Silica gel with 70–230 mesh size and pure solvents were used for the column chromatography. ^1H, ^13C, and DEPT-135 NMR spectra were recorded on a 400 MHz spectrometer using DMSO as the solvent and TMS as the internal standard. The chemical shifts, multiplicity, and coupling constants were calculated from data obtained through the FID file. […] The IC50 and percent inhibition were calculated by using GraphPad software. […] The optical density was measured through a microplate reader at 570 nm. […]

HeLa cells = experiment: Microscopic evaluation of ROS generation (H2DCF-DA); format: cell-based; conditions: IC50 and 2 × IC50, versus control
Source text: The production of reactive oxygen species (ROS) has been an extensively researched topic in medicinal chemistry due to their involvement in numerous biochemical phases of health and disease. In a biological system, redox-sensitive fluorogenic materials such as 2′,7′-dichlorodihydrofluorescein-diacetate (DCFH2-DA) are commonly used to investigate the production of ROS during oxidative stress. It easily penetrates through the cell membrane, where esterase enzyme hydrolyzes the acetate group to a more hydrophilic group, which further oxidizes in the cytoplasmic region to give rise to a highly fluorescent product. In this study, the HeLa cells were used to investigate the production of ROS. The non-fluorescent material 2′,7′-dichlorodihydrofluorescein (DCFH2) converts into the fluorescent 2′,7′-dichlorofluorescein (DCF) under intracellular oxidative stress.
The production of reactive oxygen species (ROS) in compound 4d-treated HeLa cells was observed by applying a published protocol with some modifications. Cells at a density of 2 × 10^5 cells/well/mL were grown on round coverslips in a 24-well plate and kept in an incubator having humid 5% CO2 and 95% air at 37 °C. […] Cells were gently washed with PBS to remove excess dye, and images were captured at a magnification of 20× using excitation/emission filters at 488/530 nm with the help of a fluorescence microscope (Nikon ECLIPSE Ni–U).

[1] = system: Cervical Cancer (HeLa) Cells; experiment: MTT cell viability assay, HeLa; format: cell-based; conditions: Homo sapiens, HeLa
Source text: An MTT assay was used to determine the viability of the cells under examination in the desired medium. The mitochondrial dehydrogenase enzyme of the viable cells has a key role in the conversion of the yellow water-soluble substrate 3-(4,5-dimethylthiazol-2-y1)-2,5 diphenyl tetrazolium bromide (MTT) into a dark blue formazan product that is insoluble in water. The anticancer activity of the novel synthetic derivatives (4a–4k) was investigated through an MTT assay, with small modifications following the already published protocols against cancer cell lines (HeLa and MCF-7), using cisplatin as a reference drug. The cytotoxic effect of the tested compounds at 100 µM concentration was determined and represented as the percent growth inhibition compared with the untreated control cells. The first series comprised dihydropyridines analogous from 4a–4f with various substitution patterns on the phenyl ring. […] It is presumed that the 1-naphthyl containing compound 4c was locked in a configuration that is not favorable for an interaction with amino acid residues.
The anti-proliferative activity of the synthesized compounds was determined in MCF-7 and HeLa cells by an MTT cell viability assay, as described earlier. Briefly, we seeded 1 × 10^4 cells/well in a sterile 96-well culture microtiter plate and incubated them in a 5% CO2 incubator at 37 °C for 24 h. […] After 24 h, the cells were treated with 0.2 mg/mL of MTT reagent for 4 h. We added 10% acidified SDS (sodium dodecyl sulfate) solubilizing solution in propanol (1:1) to solubilize the formazan crystals. After 30 min at 37 °C, the plate was placed on a gyratory shaker to completely dissolve the formazan crystals. The plate was placed on a microplate reader to measure the optical density at 570 nm. The IC50 values were calculated from three independent experiments as previously reported.

N#CC1=C(N)N(Cc2ccccc2)C(N)=C(C#N)C1c1ccc2ccccc2c1 [Compound 4d, 2,6-Diamino-1-benzyl-4-(naphthalen-2-yl)-1,4-dihydropyridine-3,5-dicarbonitrile]
Stern–Volmer constant (Ksv) (Herring sperm DNA; DNA 0–50 µg/mL): 34100 M⁻¹
attenuation of fluorescence emission (Herring sperm DNA; 50 µg/mL DNA, emission 410 nm): ~ 55%
production of ROS (HeLa cells): dose-dependent increase
inhibition at 100 µM ([1]; 100 µM, 24 h): 82.7%
IC50 ([1]; unit given, read-out: Cervical Cancer (HeLa) Cells IC50 Values ± SEM): 53.47 ± 0.5 µM
